Data on one compound can be found in the supplement of paper PMC11061612.

Each structure is given as a SMILES string.

What all share (experiment): Bliss excess, mean over the matrix (fraction); higher = more synergy
The test system of assay [1] is IST-MEL1 (Melanoma). In a few lines:
(§1)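 Bliss excess equals the observed combination effect minus the expected value EA + EB − EA·EB, where EA and EB are the effects of each agent alone. Combination Emax is the second-highest inhibition within the matrix. Inhibition was scaled from CellTiter-Glo 2.0 luminescence, with 0 set by vehicle wells and 1 by blank wells, after 72 hours of two-drug dosing of cells plated in 1536-well plates.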

Assay [2] concerns LCLC-103H (Non-Small Cell Lung Carcinoma). In a few lines: as §1
For assay [3], the system named is SKG-IIIa (Cervical Carcinoma). In a few lines:
as §1

Assay [4] relates to BxPC-3 (Pancreatic Carcinoma). In a few lines: as §1
Assay [5] concerns CPC-N (Small Cell Lung Carcinoma). In a few lines: as §1
In assay [6] the test system is C-33-A (Cervical Carcinoma). Put shortly:
as §1

In assay [7] the test system is SCC-4 (Oral Cavity Carcinoma). In a few lines: as §1
The subject of assay [8] is NCI-H226 (Mesothelioma). In a few lines:
as §1

Assay [9] concerns NCI-H3118 (Head and Neck Carcinoma). Put shortly:
as §1

Assay [10] has as its system SNU-423 (Hepatocellular Carcinoma). Put shortly:
as §1

Assay [11] relates to HPAF-II (Pancreatic Carcinoma). Put shortly: as §1
Assay [12] concerns SK-CO-1 (Colorectal Carcinoma). In a few lines:
as §1

Assay [13] deals with MDA-MB-415 (Breast Carcinoma). In a few lines: as §1
For assay [14], the system named is ES6 (Ewing's Sarcoma). Put shortly: as §1
Assay [15] concerns KALS-1 (Glioblastoma). In a few lines:
as §1

For assay [16], the system named is MS-1 (Small Cell Lung Carcinoma). In a few lines:
as §1

The subject of assay [17] is LS-1034 (Colorectal Carcinoma). In a few lines: as §1
Assay [18] deals with COR-L88 (Small Cell Lung Carcinoma). Put shortly: as §1
The subject of assay [19] is T84 (Colorectal Carcinoma). In a few lines: as §1
For assay [20], the system named is MONO-MAC-6 (Acute Myeloid Leukemia). In a few lines: as §1

Turning to `C[C@@H](Oc1cc(-c2cnn(C3CCNCC3)c2)cnc1N)c1c(Cl)ccc(F)c1Cl` [Crizotinib] + Cn1cnc2c(F)c(Nc3ccc(Br)cc3Cl)c(C(=O)NOCCO)cc21 [Selumetinib] (first compound max 10 µM, 7x7, partner max 10 µM), the Bliss excess was 0.0273 in assay [1]; -0.0221 in assay [2]; -0.0048 in assay [3]; -0.0323 in [4]; -0.0663 in assay [5]; -0.0274 in assay [6]. The Bliss excess in assay [7] was -0.0514; in assay [8], -0.0387; in assay [9], -0.0222; in [10], -0.0459; in [11], 0.0008; in assay [12] it was -0.043. In addition, the Bliss excess in assay [13] is -0.0114; in assay [14], -0.0552; in [15], -0.005; in assay [16], -0.0926; in assay [17], -0.0843; in assay [18], -0.0464. The values for the Bliss excess in assay [19] and in [20] were -0.0143 and 0.023, respectively.
